Measurements as given in PMC10065799, “High-throughput profiling of sequence recognition by tyrosine kinases and SH2 domains using bacterial peptide display” (eLife, 2023).

Target: T1, c-Abl kinase domain (Mus musculus, UniProt P00520)
T1 sequence (P00520 242-493 limits assumed): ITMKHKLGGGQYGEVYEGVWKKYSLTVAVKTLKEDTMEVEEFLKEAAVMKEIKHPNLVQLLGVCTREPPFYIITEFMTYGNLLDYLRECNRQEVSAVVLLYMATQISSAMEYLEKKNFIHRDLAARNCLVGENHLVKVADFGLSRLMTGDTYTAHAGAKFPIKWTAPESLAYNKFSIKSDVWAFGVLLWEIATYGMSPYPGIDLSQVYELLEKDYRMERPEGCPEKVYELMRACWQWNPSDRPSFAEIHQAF
Test: pTyr-Var library bacterial peptide display kinase screen (enrichment scores)
Type: biochemical
Conditions: variant versus reference peptide

Row | Sequence | c-Abl difference (mean log2 variant - mean log2 reference)
1 | ATVQNYLPKCI [A2M_Y817_L815Q] | -0.04049
2 | LHVGFYESDVM [A2M_Y708_R704H] | -1.318
